Where no end group is shown, it is not given here. [ ]: non-standard residue; d: D form. pGlu = O=C1CC[C@@H](C(=O)O)N1
Assays:
[1] = test system: angiotensin conversion enzyme; settings: 15 minutes of preincubation with the enzyme; cited from earlier work
[2] = test system: angiotensin conversion enzyme and peptidases; test: Stability: resistance of peptides to angiotensin conversion enzyme and to peptidases; format: in vitro ADME; settings: after 3 hours of incubation
From the text: The stability of peptides of formula (B) and (C) has been verified by determining the resistance of said peptides to the angiotensin conversion enzyme and to peptidases.

[3] = target: T1, angiotensin conversion enzyme (Oryctolagus cuniculus, UniProt P12822); test: Inhibition of angiotensin conversion enzyme in vitro (method of Cushman and Cheung); format: biochemical; settings: enzyme isolated from rabbit lungs; read-out: I50
T1 construct: with the enzyme isolated from rabbit lungs; from tissue; host or cells: rabbit lungs
T1 sequence (P12822 34-1310): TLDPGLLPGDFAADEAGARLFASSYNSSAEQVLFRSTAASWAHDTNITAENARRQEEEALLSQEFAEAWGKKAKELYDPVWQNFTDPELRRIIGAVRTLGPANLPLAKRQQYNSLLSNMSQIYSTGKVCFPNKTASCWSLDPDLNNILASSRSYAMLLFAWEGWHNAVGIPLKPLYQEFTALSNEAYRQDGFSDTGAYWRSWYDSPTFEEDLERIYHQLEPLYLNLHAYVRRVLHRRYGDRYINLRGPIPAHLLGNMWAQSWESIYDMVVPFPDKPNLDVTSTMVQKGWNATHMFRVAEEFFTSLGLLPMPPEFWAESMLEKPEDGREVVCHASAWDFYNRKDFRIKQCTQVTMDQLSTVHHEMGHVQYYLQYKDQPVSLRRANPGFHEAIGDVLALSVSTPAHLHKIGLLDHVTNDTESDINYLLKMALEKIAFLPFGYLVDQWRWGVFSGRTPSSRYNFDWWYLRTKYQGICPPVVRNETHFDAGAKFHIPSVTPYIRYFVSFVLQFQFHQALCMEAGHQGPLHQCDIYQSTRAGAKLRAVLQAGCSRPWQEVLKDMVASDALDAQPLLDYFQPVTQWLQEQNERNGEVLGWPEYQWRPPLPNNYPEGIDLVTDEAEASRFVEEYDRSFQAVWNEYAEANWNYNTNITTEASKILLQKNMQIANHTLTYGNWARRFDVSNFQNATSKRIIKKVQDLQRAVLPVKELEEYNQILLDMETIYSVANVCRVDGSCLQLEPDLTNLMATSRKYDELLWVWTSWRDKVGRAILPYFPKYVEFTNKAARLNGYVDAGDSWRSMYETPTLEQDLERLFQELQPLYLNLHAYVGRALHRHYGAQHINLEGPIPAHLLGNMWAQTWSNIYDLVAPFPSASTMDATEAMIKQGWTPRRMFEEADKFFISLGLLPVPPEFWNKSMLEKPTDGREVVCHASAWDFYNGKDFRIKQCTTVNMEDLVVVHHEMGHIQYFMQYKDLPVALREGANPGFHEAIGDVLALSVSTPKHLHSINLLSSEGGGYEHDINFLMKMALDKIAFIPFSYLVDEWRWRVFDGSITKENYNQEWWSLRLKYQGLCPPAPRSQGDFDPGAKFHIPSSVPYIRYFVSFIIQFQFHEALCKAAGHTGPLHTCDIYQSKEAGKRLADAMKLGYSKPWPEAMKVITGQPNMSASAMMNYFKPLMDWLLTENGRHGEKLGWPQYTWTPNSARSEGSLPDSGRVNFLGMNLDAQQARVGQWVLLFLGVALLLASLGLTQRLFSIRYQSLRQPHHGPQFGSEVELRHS
Procedure: The inhibition of angiotensin conversion enzyme by the compounds corresponding to general formula (I) is measured, in vitro, with the enzyme isolated from rabbit lungs according to the method by Cushman and Cheung [Biochem.-Pharmacol., 20, 1637, (1971)].
In Table 1 the values of I50 (μM) obtained by using the retroinverted analogues and natural not-modified peptide, which is used as the comparison term, are reported.

Compound	loss of inhibiting activity [1]	resistance towards enzymatic degradation [2]	IC50 [3]
Glp-Lys-Trp-Ala-Pro ([pGlu]KWAP) [BPP5a]	complete loss	–	–
C[C@@H](C(=O)N[C@H](Cc1ccccc1)C(=O)N[C@H](CCCCN)C(=O)N[C@@H]1CCC(=O)N1)C(=O)N1C[C@@H](Sc2ccccc2)C[C@H]1C(=O)O [B, gGlp--Dlys--DPhe--(S)m Ala--Pro--(4-allo--SPh)--OH]	–	resistant	7.5 µM

From patent US4728725A, “Retro-inverted peptides analogues of Bradykinin Potentiator BPP5a” (Enichem, S.p.A., priority 1984, dated 1988)
